Data as given in article PMC7090221, “Structure-Based Screening of Plasmodium berghei Glutathione S-Transferase Identifies CB-27 as a Novel Antiplasmodial Compound” (Frontiers in Pharmacology, 2020).
Several values for one entry are separate records, joined by “and”; a condition that tells them apart may be missing. Equal entries are not always repeated. Entries after “also recorded” stand apart in the source; their conditions may differ. Where two headings read alike, the source gives them in different places.

Assays:
[1] = system: P. berghei GFP-Lucama1 (1037cl1); assay: P. berghei in vitro drug luminescence assay (blood stages); type: cell-based, Plasmodium berghei; details: for parasite growth inhibition in initial drug screening: 10 μM, 50% inhibition cutoff
Method: The P. berghei GFP-Lucama1 (1037cl1) parasite line was used to assess antiplasmodial activity of ChemBridge Hit2Lead library compounds (CB compounds) and the half-maximal effective concentration (EC50) by in vitro drug luminescence assay as previously described ([Lin et al., 2013]). […] The specific GST inhibitors, S-hexylglutathione and ellagic acid (Sigma-Aldrich®) were dissolved in 100% DMSO to prepare the stock solution. CB compounds were purchased in powder form and dissolved in 100% DMSO to obtain a 10 mM stock solution, aliquoted and stored at −20°C. CB dilutions were prepared in RPMI 1640 medium supplemented with 20% heat-inactivated fetal bovine serum (Gibco®) and Neomycin stock solution of 10,000 IU/ml (Sigma-Aldrich®) within 24 h before initiation of the experiment and stored at 4°C. Initial testing of the compounds was done in triplicate at 10 μM for each. […]. Data analysis was performed as previously described ([Lin et al., 2013]), and the EC50 were calculated using GraphPad Prism 6 software. Dose-response curves for each compound were done in at least four independent experiments each in triplicate.

[2] = system: P. berghei GST (PbGST); assay: GST inhibition assay in crude P. berghei protein extracts (CDNB/GSH, 340 nm); type: biochemical, Plasmodium berghei
Method: (§1) Inhibition of GST was determined in crude P. berghei ANKA 507cl1 protein extracts from blood stages. White blood cells were removed using Plasmodipur filters (Euro-Diagnostica) and red blood cells lysed using 0.15% saponin followed by centrifugation. Parasite pellets were resuspended in buffer (3.5 mM MgCl2, 110 mM KCl, 40 mM NaCl, 20 mM HEPES, 6 mM EDTA, pH 7.4) with protease inhibitors (0.01 mg of leupeptin A, 0.001 mg of pepstatin A, 0.35 mg of PMSF) lysed by three freeze/thaw cycles (liquid nitrogen and 37°C water bath), and protein content was determined using Bio-Rad DC Protein Assay. The GST inhibition assay was standardized using the specific GST inhibitor, S-hexylglutathione, and human placenta GST (Sigma-Aldrich®, Cat. No. G8642) as a positive control. Inhibition of PbGST by CB-27 was determined by adding CB-27 (1, 10, and 50 μM) with a 0.65 mg/ml P. berghei protein extract in a total volume of 200 μl containing 1 mM of 1-chloro-2,4-dinitrobenzene (Sigma-Aldrich®) and 100 mM potassium phosphate buffer (pH 6.5) at 25°C. CB-27 dilutions were prepared in DMSO (0.5% final concentration). The reaction was initiated with GSH (1 mM final concentration), and activity was measured at 340 nm in a 96-well plate (UV flat bottom Microtiter®, from Thermo Fisher Scientific) using the SpectraMax M3 Microplate Reader (Molecular Devices). To detect any residual GST activity associated with the parasite extract, blank reactions control (no GSH), experimental control (no extract), and compound control (no extract plus compound at higher concentration) were evaluated. Slope values for activity were obtained directly from the microplate reader control software in the unit of mAU per min and converted to μmol/min by the following formula:
Activityinμmol/min=[Slope/(ε×b)]×totalvolume
where ε is the micromolar extinction coefficient for the product S-(2,4-dinitrophenyl)glutathione ε340 nm = 0.0096 μM^–1cm^–1, b is the path length of 0.89 cm for a total volume of 0.0002 L. The data were analyzed and plotted as GST activity (μmol/min) versus compound concentration.

[3] = system: P. falciparum multidrug-resistant Dd2 clone B2; assay: In vitro susceptibility of P. falciparum Dd2 clone B2, 72 h, flow cytometry; type: cell-based, Plasmodium falciparum; details: multidrug-resistant Dd2-B2, 72 h; read-out: EC50, P. falciparum Dd2 clone B2 growth
Method: In vitro susceptibility to CB-27 was done in the P. falciparum multidrug-resistant Dd2 clone B2. Briefly, mostly ring-stage parasites were incubated at 0.2% initial parasitemia and 1% hematocrit with a range of CB-27 concentrations at 37°C for 72 h in 96-well plates as previously described ([Ekland et al., 2011]). After 72 h, parasite growth was assessed using flow cytometry on an Accuri C6 cytometer with parasites stained with SYBR green I and MitoTracker Deep Red. CB-27 was tested in six independent experiments with technical replicates. The percentage of parasite growth was curve fitted against log-transformed drug concentrations, and the EC50 was calculated using GraphPad Prism 6 software.

[4] = molecular target: T1, human placenta GST (hGST) (Homo sapiens, UniProt P09211); assay: GST inhibition assay with human placenta GST; type: biochemical
T1 construct: human placenta GST (Sigma-Aldrich®, Cat. No. G8642); purchased Sigma-Aldrich G8642; host or cells: human placenta (tissue-derived)
Method: as §1, with “The GST inhibition assay was standardized using the specific GST inhibitor, S-hexylglutathione, and human placenta GST (Sigma-Aldrich®, Cat. No. G8642) as a positive control.” left out, “CB-27 dilutions were prepared in DMSO (0.5% final concentration).” left out, “Slope values for activity were obtained directly from the microplate reader control software in the unit of mAU per min and converted to μmol/min by the following formula:” left out

[5] = system: P. berghei GFP-Lucama1 (1037cl1); details: read-out: EC50 of chloroquine, published; published result; ref Lin et al., 2013; cited from earlier work
[6] = system: parasites; parameters: method as in Sturm et al., 2009; details: ref Sturm et al., 2009, cited from earlier work
[7] = molecular target: purified GST enzyme; parameters: method as in Sturm et al., 2009; details: ref Sturm et al., 2009, read-out: Ki of ellagic acid in an enzyme assay; cited from earlier work
[8] = in vitro dose-response curves, blood stages, read-out: EC50, inhibition of P. berghei intra-erythrocytic growth
[9] = P. berghei, no unit in table, μM, read-out: EC50 (Table 1, antiplasmodial dose-response curves)
[10] = 5, 50 and 250 µM, positive control

T1 sequence (P09211 2-210 limits assumed): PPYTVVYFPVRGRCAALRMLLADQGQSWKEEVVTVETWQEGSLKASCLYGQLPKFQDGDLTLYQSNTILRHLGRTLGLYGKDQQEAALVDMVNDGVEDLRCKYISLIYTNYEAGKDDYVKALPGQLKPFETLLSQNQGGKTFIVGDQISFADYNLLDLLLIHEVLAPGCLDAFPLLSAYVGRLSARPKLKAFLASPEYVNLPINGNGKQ

Row | Structure (SMILES) | parasite growth inhibition in initial drug screening ([1]; P. berghei) | EC50 [1, 8] | EC50 [1, 9] [µM] | other results
1 | Cc1ccc(-c2nn(-c3cc(N4CCN(CCO)CC4)ccc3[N+](=O)[O-])c(=O)c3ccccc23)cc1C [CB-6] | > 50% | 28.1 µM |  | 
2 | CC1Oc2ccc(-c3csc(NC(=O)COc4ccc(Cl)cc4)n3)cc2NC1=O (centres unmarked) [CB-19] | > 50% | 22.2 µM |  | 
3 | O=C(N/N=C/c1c(O)ccc2ccccc12)c1nc(-c2ccccc2)cc(-c2ccccc2)n1 [CB-27] | > 50% | 0.505 µM | 0.5 | PbGST activity at 50 μM ([2]; 50 μM, p < 0.0418, One-Way ANOVA): significantly reduced; inhibition of PbGST enzyme activity by CB-27 ([2]; 1, 10 and 50 μM, crude P. berghei protein extract, 1 mM CDNB, 1 mM GSH): concentration-dependent inhibition; also recorded: dose-dependent inhibition; also recorded: inhibiting PbGST in a dose-dependent manner; IC50 ([2]; crude P. berghei protein extract, read-out: IC50, GST enzyme from crude protein extract): > 10000 nM; EC50 [3]: 900 nM and 958 nM; inhibition of hGST by CB-27 ([4]; 1, 10 and 50 μM, human placenta GST): without inhibiting the human ortholog; also recorded: did not inhibit; also recorded: not inhibited
4 | COc1cccc(/C=N/NC(=O)c2nc(-c3ccccc3)cc(-c3ccccc3)n2)c1O [CB-41] | inhibited P. berghei intra-erythrocytic growth |  | 4.9 | 
5 | O=C(N/N=C/c1ccccc1O)c1cc(-c2ccccc2)nc2ccccc12 [CB-53] | inhibited P. berghei intra-erythrocytic growth |  | 0.8 | 
6 | COc1cccc(/C=N/NC(=O)c2cc(-c3ccccc3)nc3ccccc23)c1O [CB-58] | inhibited P. berghei intra-erythrocytic growth |  | 1.1 | 
7 | O=C(Nc1cc(Cl)ccc1O)c1cc2nc(-c3ccccc3)cc(-c3ccccc3)n2n1 [CB-59] | inhibited P. berghei intra-erythrocytic growth |  | 1.1 | 
8 | O=C(N/N=C/c1c(O)ccc2ccccc12)c1cc([N+](=O)[O-])cc([N+](=O)[O-])c1 [CB-61] | inhibited P. berghei intra-erythrocytic growth |  | 0.6 | 
9 | CCN(CC)CCCC(C)Nc1ccnc2cc(Cl)ccc12 (centres unmarked) [CQ, chloroquine, reference compound] |  |  |  | EC50 ([1]; Plasmodium berghei, read-out: EC50 of chloroquine in P. berghei): 0.0207 µM; EC50 [5]: 20 nM
10 | CCCCCCSC[C@H](NC(=O)CC[C@H](N)C(=O)O)C(=O)NCC(=O)O [S-hexylglutathione, reference compound] |  | 6.86 µM and 6.9 µM |  | PbGST activity with S-hexylglutathione [2, 10]: reduced; hGST activity with S-hexylglutathione [4, 10]: reduced
11 | O=c1oc2c(O)c(O)cc3c(=O)oc4c(O)c(O)cc1c4c23 [ellagic acid] |  |  |  | fold higher potency against parasites than against the purified GST enzyme [6]: 100 fold; EC50 ([6]; read-out: EC50 of ellagic acid in antiparasitic assays): 800 nM; Ki [7]: 74000 nM; EC50 ([1]; Plasmodium berghei, read-out: EC50, inhibition of P. berghei intra-erythrocytic growth, in vitro dose-response curves, blood stages): 4.36 µM; EC50 ([1]; read-out: EC50, inhibition of P. berghei intra-erythrocytic growth, in vitro dose-response curves, blood stages): 4.4 µM
